According to patent US20190183948A1, “USE OF BCL-XL INHIBITOR AND ONCOLYTIC VIRUS IN PREPARATION OF ANTITUMOR DRUG” (GUANGZHOU VIROTECH PHARMACEUTICAL CO., LTD., priority 2016, published 2019):

How the values were obtained:
Mcl-1 = Mcl-1 (Homo sapiens, UniProt Q07820); conditions: cited from earlier work
[1] = system: LoVo transplantable tumor; assay: Transplantable tumor growth in nude mice, LoVo (Example 4); format: in vivo, BALB/c nude mice; conditions: LoVo s.c. in nude mice; ABT-263 i.p. 10 mg/kg/d, M1 tail vein 2×10^6 PFU/time, three injections
Description: (§1) This experiment was designed in a randomized, single-blind way. 5×10^6 Hep3B or LoVo cells were subcutaneously injected into dorsa of the 4-week-aged BALB/c nude mice.
(§2) The weight, length and width of the tumor were measured every two days, and the volume of the tumor was calculated according to the formula: (length×width 2)/2. After the volume of the tumor was measured, One-way ANOVA statistics was carried out, wherein *** represented p<0.001 and **represented p<0.01.

[2] = system: human liver cancer cell Hep3B; assay: MTT survival rate (Example 2), Hep3B; format: cell-based; conditions: 48 hours, inhibitor 100 nM, M1 MOI=0.001
Description: a) Inoculation of cells and administration treatment: The cells in the exponential growth phase were selected and added into a DMEM complete culture medium (containing 10% fetal bovine serum and 1% penicillin/streptomycin (Life Technologies)) to prepare a cell suspension. The cells were inoculated into a 96-well culture plate at a density of 4×10^3/well. After 12 hours, the cells were completely adherent to the wall. […] The dose was used as follows: M1 virus that infected the cells; different dose gradient set for M1 virus. b) Reaction of MTT (3-(4,5-dimethylthiazol-2-yl)-2,5-diphenyltetrazolium bromide or methyl thiazolyl tetrazolium) with succinate dehydrogenase in the cells: 48 hours after culture, 20 μl of MIT (5 mg/ml) was added into each well, and was incubated for further 4 hours. After incubation, granular blue and purple formazan crystals formed in the living cells were observed by microscopic examination. c) Dissolution of formazan particles formed in the cells was accomplished as follows: the supernatant was carefully sucked off, and 100 μl/well of DMSO was added to dissolve the formed crystals, and was shaken in a microoscillator for 5 minutes. Then, the optical density (OD value) of each well was detected in an enzyme linked detector at a wavelength of 570 nm. The experiments were repeated for 3 times for each group. […]

[3] = system: Hep3B transplantable tumor; assay: Transplantable tumor growth in nude mice, Hep3B (Example 4); format: in vivo, BALB/c nude mice; conditions: Hep3B s.c. in nude mice; ABT-263 i.p. 10 mg/kg/d, M1 tail vein 2×10^6 PFU/time, three injections
Description: as §1, §2

Bcl-w = molecular target: T1, Bcl-w (Homo sapiens, UniProt Q92843); conditions: cited from earlier work
T1 sequence (Q92843 1-193): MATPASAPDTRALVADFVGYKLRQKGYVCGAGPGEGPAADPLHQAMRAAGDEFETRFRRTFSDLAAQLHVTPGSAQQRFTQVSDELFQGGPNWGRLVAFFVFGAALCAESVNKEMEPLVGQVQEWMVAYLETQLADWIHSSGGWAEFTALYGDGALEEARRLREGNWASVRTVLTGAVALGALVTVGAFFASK

A1 = molecular target: T2, A1 (Homo sapiens, UniProt Q16548); conditions: cited from earlier work
T2 sequence (Q16548 1-175): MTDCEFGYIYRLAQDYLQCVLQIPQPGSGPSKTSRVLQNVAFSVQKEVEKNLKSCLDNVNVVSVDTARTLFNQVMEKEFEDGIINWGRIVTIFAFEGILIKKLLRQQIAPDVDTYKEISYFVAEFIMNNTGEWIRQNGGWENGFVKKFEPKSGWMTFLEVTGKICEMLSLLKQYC

Bfl-1 = molecular target: T3, Bfl-1 (Homo sapiens, UniProt Q16548); conditions: cited from earlier work
T3 sequence (Q16548 1-175): T2 sequence (Q16548 1-175)

Bcl-B = molecular target: T4, Bcl-B (Homo sapiens, UniProt Q9HD36); conditions: cited from earlier work
T4 sequence (Q9HD36 1-204): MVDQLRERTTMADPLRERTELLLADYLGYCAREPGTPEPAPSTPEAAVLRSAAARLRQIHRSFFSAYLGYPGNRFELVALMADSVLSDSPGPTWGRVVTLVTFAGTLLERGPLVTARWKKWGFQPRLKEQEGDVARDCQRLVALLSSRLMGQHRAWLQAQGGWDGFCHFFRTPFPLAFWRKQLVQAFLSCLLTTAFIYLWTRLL

Sequence of Mcl-1 (Q07820 whole entry, species assumed): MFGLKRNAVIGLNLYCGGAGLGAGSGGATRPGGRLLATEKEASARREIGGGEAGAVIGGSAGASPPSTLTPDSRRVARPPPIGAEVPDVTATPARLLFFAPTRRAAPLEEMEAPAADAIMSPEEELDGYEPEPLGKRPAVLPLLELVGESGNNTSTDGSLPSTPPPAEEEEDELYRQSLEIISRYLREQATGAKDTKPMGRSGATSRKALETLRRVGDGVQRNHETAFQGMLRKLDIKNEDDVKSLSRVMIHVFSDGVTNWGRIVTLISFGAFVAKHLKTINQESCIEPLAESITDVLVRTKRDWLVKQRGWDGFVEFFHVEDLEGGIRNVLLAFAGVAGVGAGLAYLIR

SMILES	binding / inhibitory effect on Mcl-1 (Mcl-1)	tumor volume vs control group [1]	survival rate of the tumor cells [2] [%]	tumor volume vs control group [3]	Ki (Bcl-w) [nM]	binding to A1 (A1)	inhibitory effect on Bfl-1 (Bfl-1)	inhibitory effect on Bcl-B (Bcl-B)
CC1(C)CCC(CN2CCN(c3ccc(C(=O)NS(=O)(=O)c4ccc(NCC5CCOCC5)c([N+](=O)[O-])c4)c(Oc4cnc5[nH]ccc5c4)c3)CC2)=C(c2ccc(Cl)cc2)C1 [ABT-199]	no activity	–	–	–	–	–	–	–
CC1(C)CCC(c2ccc(Cl)cc2)=C(CN2CCN(c3ccc(C(=O)NS(=O)(=O)c4ccc(N[C@H](CCN5CCOCC5)CSc5ccccc5)c(S(=O)(=O)C(F)(F)F)c4)cc3)CC2)C1 [ABT-263]	binds weakly	slight shrinkage of the tumor volume	88.8	slight shrinkage of the tumor volume	≤ 1	binds weakly	–	–
CN(C)CC[C@H](CSc1ccccc1)Nc1ccc(S(=O)(=O)NC(=O)c2ccc(N3CCN(Cc4ccccc4-c4ccc(Cl)cc4)CC3)cc2)cc1[N+](=O)[O-] [ABT-737]	no inhibitory effect	–	–	–	–	–	no inhibitory effect	no inhibitory effect
